Assay results from patent US9060515B2, “Heterocyclic urea compounds” (BIOTA EUROPE LTD, priority 2011, dated 2015).
In brackets after ≈: the same amount, converted by molar mass.

What was measured:
Type in all cases: cell-based
S. aureus (ATCC 29213) = test: Antibacterial susceptibility testing (MIC, broth microdilution or agar dilution), S. aureus; settings: Staphylococcus aureus, ATCC29213; read-out: S. aureus (ATCC 29213) minimal inhibitory concentration (MIC)
How it was run: (§1)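 MICs by CLSI (M7-A7) broth microdilution or agar dilution, against reference ATCC strains as listed.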

E. faecalis (ATCC 29212) = test: Antibacterial susceptibility testing (MIC, broth microdilution or agar dilution), E. faecalis; settings: Enterococcus faecalis, ATCC29212; read-out: E. faecalis (ATCC 29212) minimal inhibitory concentration (MIC)
Method: (§2) Compounds of the invention were tested for antimicrobial activity by susceptibility testing in liquid or on solid media. MICs for compounds against each strain were determined by the broth microdilution or agar dilution method according to the guidelines of the Clinical Laboratories and Standards Institute, formerly the National Committee for Clinical Laboratory Standards (Clinical Laboratories and Standards Institute. Methods for Dilution Antimicrobial Susceptibility Tests for Bacteria That Grow Aerobically; Approved Standard—Seventh Edition. Document M7-A7. CLSI, Wayne, Pa., 2006; Clinical Laboratories and Standards Institute. The Gram positive bacterial strains tested include S. aureus (Staphylococcus aureus (Isolate ID ATCC 29213)), E. faecalis (Enterococcus faecalis (Isolate ID ATCC 29212)) and S. pyogenes (Streptococcus pyogenes (Isolate ID ATCC 51339)). The Gram negative bacterial strains tested include H. influenzae (Haemophilus influenzae (Isolate ID ATCC 49247)).

[1] = tested on: H. influenzae (ATCC 49247); test: Antibacterial susceptibility testing (MIC, broth microdilution or agar dilution), H. influenzae; settings: Haemophilus influenzae, ATCC49247; read-out: H. influenzae (ATCC 49247) minimal inhibitory concentration (MIC)
Method: as §2

S. pyogenes (ATCC 51339) = test: Antibacterial susceptibility testing (MIC, broth microdilution or agar dilution), S. pyogenes; settings: Streptococcus pyogenes, ATCC51339; read-out: S. pyogenes (ATCC 51339) minimal inhibitory concentration (MIC)
How it was run: as §1

Row | Compound | MIC (S. aureus (ATCC 29213)) [µg/mL] | MIC (E. faecalis (ATCC 29212)) [µg/mL] | MIC [1] [µg/mL] | MIC (S. pyogenes (ATCC 51339)) [µg/mL]
1 | CCNC(=O)Nc1cc(Nc2ccc(F)c(C)c2)c(C(=O)Nc2ccc(CCC(=O)O)cc2)cn1 [Compound 223, 3-{4-[({6-[(ethylcarbamoyl)amino]-4-[(4-fluoro-3-methylphenyl)amino]pyridin-3-yl}carbonyl)amino]phenyl}propanoic acid] | ≤ 1 | ≤ 1 | ≤ 1 | 
2 | CCNC(=O)Nc1cc(Nc2ccccc2)c(C(=O)Nc2ccc(CC(=O)OCC)cc2)cn1 [Compound 70, ethyl 2-(4-(6-(3-ethylureido)-4-(phenylamino)nicotinamido)phenyl)acetate] | ≤ 1 |  | 2 (≈ 4.33 µM) | ≤ 1
3 | CCNC(=O)Nc1cc(Nc2cncc(F)c2)c(C(=O)Nc2ccc(CCC(=O)O)cc2)cn1 [Compound 236] | 4 (≈ 8.57 µM) | ≤ 1 | 4 (≈ 8.57 µM) | 
4 | CCNC(=O)Nc1cc(Nc2ccccc2)c(C(=O)Nc2cc(C(=O)O)n(C)c2)cn1 [Compound 103, 4-(6-(3-ethylureido)-4-(phenylamino)nicotinamido)-1-methyl-1H-pyrrole-2-carboxylic acid] | 4 (≈ 9.47 µM) |  | 4 (≈ 9.47 µM) | ≤ 1
5 | CCNC(=O)Nc1cc(Nc2ccccc2)c(C(=O)Nc2ccc(CCC(=O)N(C)OC)cc2)cn1 [Compound 123, 6-(3-Ethylureido)-N-(4-(3-(methoxy(methyl)amino)-3-oxopropyl)phenyl)-4-(phenylamino)nicotinamide] | ≤ 1 |  | 8 (≈ 16.3 µM) | ≤ 1
6 | CCNC(=O)Nc1cc(Nc2ccc(C)c(F)c2)c(C(=O)Nc2ccc(CCC(=O)O)cc2)cn1 [Compound 222, 3-{4-[({6-[(ethylcarbamoyl)amino]-4-[(3-fluoro-4-methylphenyl)amino]pyridin-3-yl}carbonyl)amino]phenyl}propanoic acid] | ≤ 1 | ≤ 1 | ≤ 1 | 
7 | CCNC(=O)Nc1cc(Nc2ccccc2)c(C(=O)Nc2ccc(S(N)(=O)=O)cc2)cn1 [Compound 231, 6-[(ethylcarbamoyl)amino]-4-(phenylamino)-N-(4-sulfamoylphenyl)pyridine-3-carboxamide] | 4 (≈ 8.8 µM) | ≤ 1 | 4 (≈ 8.8 µM) | 
8 | CCNC(=O)Nc1cc(Nc2ccccc2)c(C(=O)Nc2ccnc(C)c2)cn1 [Compound 90, 6-(3-ethylureido)-N-(2-methylpyridin-4-yl)-4-(phenylamino)nicotinamide] | ≤ 1 |  | 8 (≈ 20.5 µM) | ≤ 1
9 | CCNC(=O)Nc1cc(Nc2ccccc2)c(C(=O)Nc2ccc(CS(=O)(=O)NC)cc2)cn1 [Compound 210, 6-[(ethylcarbamoyl)amino]-N-{4-[(methylsulfamoyl)methyl]phenyl}-4-(phenylamino)pyridine-3-carboxamide] | 2 (≈ 4.14 µM) | ≤ 1 | 4 (≈ 8.29 µM) | 
10 | CCNC(=O)Nc1cc(Nc2cc(F)cc(F)c2)c(C(=O)Nc2ccc(C3CC3C(=O)O)cc2)cn1 (centres unmarked) [Compound 238, 2-{4-[({4-[(3,5-difluorophenyl)amino]-6-[(ethylcarbamoyl)amino]pyridin-3-yl}carbonyl)amino]phenyl}cyclopropanecarboxylic acid] | ≤ 1 | ≤ 1 | ≤ 1 | 
11 | CCNC(=O)Nc1cc(Nc2cccc(S(F)(F)(F)(F)F)c2)c(C(=O)Nc2ccc(CCC(=O)O)cc2)cn1 [Compound 237, 3-(4-{[(6-[(ethylcarbamoyl)amino]-4-{[3-(pentafluorothio)phenyl]amino}pyridin-3-yl)carbonyl]amino}phenyl)propanoic acid] | ≤ 1 | ≤ 1 | 2 (≈ 3.49 µM) | 
12 | CCNC(=O)Nc1cc(Nc2ccc(C#N)cc2)c(C(=O)Nc2ccc(CN3CCOCC3)cc2)cn1 [Compound 204, 4-[(4-cyanophenyl)amino]-6-[(ethylcarbamoyl)amino]-N-[4-(morpholin-4-ylmethyl)phenyl]pyridine-3-carboxamide] | ≤ 1 | ≤ 1 | 4 (≈ 8.01 µM) | 
13 | CCNC(=O)Nc1cc(Nc2cc(F)cc(F)c2)c(C(=O)Nc2ccc(CCc3nnn[nH]3)cc2)cn1 [Compound 161, 4-(3,5-difluoroanilino)-6-(ethylcarbamoylamino)-N-[4-[2-(1H-tetrazol-5-yl)ethyl]phenyl]pyridine-3-carboxamide] | ≤ 1 |  | 8 (≈ 15.8 µM) | 
14 | CCNC(=O)Nc1cc(Nc2ccc(C(F)(F)F)cc2)c(C(=O)Nc2ccc(CCC(=O)O)cc2)cn1 [Compound 176, 3-[4-[[6-(ethylcarbamoylamino)-4-[4-(trifluoromethyl)anilino]pyridine-3-carbonyl]amino]phenyl]propanoic acid] | ≤ 1 |  | 4 (≈ 7.76 µM) | 
15 | CCNC(=O)Nc1cc(Nc2ccccc2)c(C(=O)Nc2ccc(C(=O)OC)cc2)cn1 [Compound 67, methyl 4-(6-(3-ethylureido)-4-(phenylamino)nicotinamido)benzoate] | ≤ 1 |  | 4 (≈ 9.23 µM) | ≤ 1

The remaining lines, values ahead:

Row | MIC (S. aureus (ATCC 29213)) [µg/mL] | MIC (E. faecalis (ATCC 29212)) [µg/mL] | MIC [1] [µg/mL] | MIC (S. pyogenes (ATCC 51339)) [µg/mL] | Compound
16 | ≤ 1 | ≤ 1 | ≤ 1 |  | CCNC(=O)Nc1cc(Nc2ccnc(OC)c2)c(C(=O)Nc2ccc(CC(C)(C)C(=O)O)cc2)cn1 [Compound 187, 3-{4-[({6-[(ethylcarbamoyl)amino]-4-[(2-methoxypyridin-4-yl)amino]pyridin-3-yl}carbonyl)amino]phenyl}-2,2-dimethylpropanoic acid]
17 | 8 (≈ 19.1 µM) |  | 4 (≈ 9.54 µM) | ≤ 1 | CCNC(=O)Nc1cc(Nc2ccccc2)c(C(=O)Nc2ccc(C(=O)O)cc2)cn1 [Compound 68, 4-(6-(3-ethylureido)-4-(phenylamino)nicotinamido)benzoic acid]
18 | ≤ 1 |  | 2 (≈ 4.33 µM) | ≤ 1 | CCNC(=O)Nc1cc(Nc2ccccc2)c(C(=O)Nc2ccc(CCC(=O)OC)cc2)cn1 [Compound 77]
19 | ≤ 1 |  | 2 (≈ 4.47 µM) | ≤ 1 | CCNC(=O)Nc1cc(Nc2ccccc2)c(C(=O)Nc2ccc(CCC(=O)O)cc2)cn1 [Compound 78, 3-[4-[[4-anilino-6-(ethylcarbamoylamino)pyridine-3-carbonyl]amino]phenyl]propanoic acid]
20 | ≤ 1 |  | 4 (≈ 8.41 µM) | ≤ 1 | CCNC(=O)Nc1cc(Nc2ccccc2)c(C(=O)Nc2ccc(CC(C)(C)C(=O)O)cc2)cn1 [Compound 130, 3-(4-(6-(3-ethylureido)-4-(phenylamino)nicotinamido)phenyl)-2,2-dimethylpropanoic acid]
21 | ≤ 1 |  | 4 (≈ 7.84 µM) |  | CCNC(=O)Nc1cc(Nc2ccccc2Cl)c(C(=O)Nc2ccc(CC(C)(C)C(=O)O)cc2)cn1 [Compound 183, 3-{4-[({4-[(2-chlorophenyl)amino]-6-[(ethylcarbamoyl)amino]pyridin-3-yl}carbonyl)amino]phenyl}-2,2-dimethylpropanoic acid]
22 | 4 (≈ 8.39 µM) |  | 4 (≈ 8.39 µM) |  | CCNC(=O)Nc1cc(Nc2cccnc2)c(C(=O)Nc2ccc(CC(C)(C)C(=O)O)cc2)cn1 [Compound 171, 3-{4-[({6-[(ethylcarbamoyl)amino]-4-(pyridin-3-ylamino)pyridin-3-yl}carbonyl)amino]phenyl}-2,2-dimethylpropanoic acid]
23 | 16 (≈ 36.9 µM) |  | 2 (≈ 4.61 µM) | ≤ 1 | CCNC(=O)Nc1cc(Nc2ccccc2)c(C(=O)Nc2ccc(CC(=O)O)cc2)cn1 [Compound 71, 2-(4-(6-(3-ethylureido)-4-(phenylamino)nicotinamido)phenyl)acetic acid]
